Source: patent publication US10414731B2, “Substituted oxopyridine derivatives” (priority 2014, dated 2019)

How the values were obtained:
human plasma kallikrein = human plasma kallikrein (Homo sapiens (Human), UniProt P03952); test: Determination of the plasma kallikrein activity (fluorogenic peptide substrate); format: biochemical; conditions: plasma kallikrein from Kordia, substrate H-Pro-Phe-Arg-AMC, 22° C.
Method: (§1) To determine the plasma kallikrein inhibition of the substances according to the invention, a biochemical test system is used which utilizes the reaction of a peptidic plasma kallikrein substrate to determine the enzymatic activity of human plasma kallikrein. Here, plasma kallikrein cleaves from the peptic plasma kallikrein substrate the C-terminal aminomethylcoumarin (AMC), the fluorescence of which is measured. The determinations are carried out in microtitre plates.
Test substances are dissolved in dimethyl sulphoxide and serially diluted in dimethyl sulphoxide (3000 μM to 0.0078 μM; resulting final concentrations in the test: 50 μM to 0.00013 μM). 1 μl of the diluted substance solutions is placed into each of the wells of white microtitre plates from Greiner (384 wells). 20 μl of assay buffer (50 mM Tris/HCl pH 7.4; 100 mM sodium chloride solution; 5 mM calcium chloride solution; 0.1% of bovine serum albumin) and 20 μl of plasma kallikrein from Kordia (0.6 nM in assay buffer) are then added successively. After […] of incubation, the enzyme reaction is started by addition of 20 μl of the substrate H-Pro-Phe-Arg-AMC dissolved in assay buffer (10 μM in assay buffer) from Bachem, the mixture is incubated at room temperature (22° C.) for […] and fluorescence is then measured (excitation: 360 nm, emission: 460 nm). The measured emissions of the test batches with test substance are compared to those of control batches without test substance (only dimethyl sulphoxide instead of test substance in dimethyl sulphoxide), and IC50 values are calculated from the concentration/activity relationships.

human factor XIa = human factor XIa (Homo sapiens (Human), UniProt P03951); test: Measurement of FXIa inhibition (fluorogenic peptide substrate); format: biochemical; conditions: factor XIa from Kordia, substrate Boc-Glu(OBzl)-Ala-Arg-AMC, 22° C., 30 min
Chain of human factor XIa (P03951 whole entry, looked up): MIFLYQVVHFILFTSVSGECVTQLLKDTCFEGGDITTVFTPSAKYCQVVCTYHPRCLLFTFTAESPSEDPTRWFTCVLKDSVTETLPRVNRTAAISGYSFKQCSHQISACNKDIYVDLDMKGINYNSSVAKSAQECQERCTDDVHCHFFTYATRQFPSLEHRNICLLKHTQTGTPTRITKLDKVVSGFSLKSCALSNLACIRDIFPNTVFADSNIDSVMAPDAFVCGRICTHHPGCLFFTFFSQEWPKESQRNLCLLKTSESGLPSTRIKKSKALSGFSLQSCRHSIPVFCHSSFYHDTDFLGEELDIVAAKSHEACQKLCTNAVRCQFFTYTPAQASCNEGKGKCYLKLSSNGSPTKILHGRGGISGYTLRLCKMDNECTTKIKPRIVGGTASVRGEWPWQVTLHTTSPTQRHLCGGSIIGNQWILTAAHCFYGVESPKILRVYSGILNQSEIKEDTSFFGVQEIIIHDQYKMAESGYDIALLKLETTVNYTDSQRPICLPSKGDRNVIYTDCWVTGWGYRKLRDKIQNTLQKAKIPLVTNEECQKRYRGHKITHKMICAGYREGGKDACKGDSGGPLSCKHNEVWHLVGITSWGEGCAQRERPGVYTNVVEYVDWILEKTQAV
Chain of human factor XIa (P03951 whole entry partner, looked up): as the sequence (P03951 whole entry, looked up) above
Method: as §1, with “The factor XIa” for “To determine the plasma kallikrein”, “invention is determined using” for “invention,”, “system” for “system is used”, “factor XIa” for “plasma kallikrein”, “factor XIa.” for “plasma kallikrein.”
1 μl of the diluted substance solutions is placed into each of the wells of white microtitre plates from Greiner (384 wells). […] After […] of incubation, the enzyme reaction is started by addition of 20 μl of the factor XIa substrate Boc-Glu(OBz1)-Ala-Arg-AMC dissolved in assay buffer (10 μM in assay buffer) from Bachem, the mixture is incubated at room temperature (22° C.) for 30 min and fluorescence is then measured (excitation: 360 nm, emission: 460 nm). The measured emissions of the test batches with test substance are compared to those of control batches without test substance (only dimethyl sulphoxide instead of test substance in dimethyl sulphoxide), and IC50 values are calculated from the concentration/activity relationships.

Chain of human plasma kallikrein (P03952 whole entry, looked up): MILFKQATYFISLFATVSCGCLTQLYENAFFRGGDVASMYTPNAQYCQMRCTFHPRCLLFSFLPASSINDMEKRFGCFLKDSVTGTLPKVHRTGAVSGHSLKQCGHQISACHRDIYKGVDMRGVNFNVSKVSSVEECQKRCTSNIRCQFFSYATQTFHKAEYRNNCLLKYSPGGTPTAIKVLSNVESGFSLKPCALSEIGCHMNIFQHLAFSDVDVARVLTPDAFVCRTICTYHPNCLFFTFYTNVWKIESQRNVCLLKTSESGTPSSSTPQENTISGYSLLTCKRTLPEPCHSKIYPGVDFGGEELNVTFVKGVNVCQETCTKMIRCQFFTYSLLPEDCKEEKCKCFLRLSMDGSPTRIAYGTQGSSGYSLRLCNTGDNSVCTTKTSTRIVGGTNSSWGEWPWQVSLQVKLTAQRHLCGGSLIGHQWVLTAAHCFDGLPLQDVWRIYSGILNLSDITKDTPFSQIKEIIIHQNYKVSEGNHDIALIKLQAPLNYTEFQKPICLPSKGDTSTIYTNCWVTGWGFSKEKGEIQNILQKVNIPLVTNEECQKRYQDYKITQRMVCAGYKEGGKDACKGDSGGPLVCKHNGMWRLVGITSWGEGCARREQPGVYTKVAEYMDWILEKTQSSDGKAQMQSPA
Chain of human plasma kallikrein (P03952 whole entry partner, looked up): as the sequence (P03952 whole entry, looked up) above

## CCC(C(=O)Nc1ccc(C(=O)OC[C@H](NC(=O)[C@H](C(C)C)N(C)C)C(=O)O)cc1)n1cc(OC)c(-c2cc(Cl)ccc2C#N)cc1=O (single isomer, unassigned) [Example 9, N,N-Dimethyl-L-valyl-O-[4-({2-[4-(5-chloro-2-cyanophenyl)-5-methoxy-2-oxopyridin-1(2H)-yl]butanoyl}amino)benzoyl]-L-serine]
Human plasma kallikrein
  IC50: 0.051 µM
Human factor XIa
  IC50: 0.063 µM

## CCC(C(=O)Nc1ccc(C(=O)OC2CCN(C)CC2)cc1)n1cc(OC)c(-c2cc(Cl)ccc2C#N)cc1=O (single isomer, unassigned) [Example 13, 1-Methylpiperidin-4-yl 4-({2-[4-(5-chloro-2-cyanophenyl)-5-methoxy-2-oxopyridin-1(2H)-yl]butanoyl}amino)benzoate]
Human plasma kallikrein
  IC50: 0.12 µM
Human factor XIa
  IC50: 0.23 µM

## CCC(C(=O)Nc1ccc(C(=O)OC(C)[C@H](N)C(=O)O)cc1)n1cc(OC)c(-c2cc(Cl)ccc2C#N)cc1=O (single isomer, unassigned) [Example 2, O-[4-({2-[4-(5-Chloro-2-cyanophenyl)-5-methoxy-2-oxopyridin-1(2H)-yl]butanoyl}amino)-benzoyl]-L-threonine]
Human plasma kallikrein
  IC50: 0.093 µM
Human factor XIa
  IC50: 0.054 µM

## CCC(C(=O)Nc1ccc(C(=O)OC[C@H](NC(=O)CN2CCCC2)C(=O)O)cc1)n1cc(OC)c(-c2cc(Cl)ccc2C#N)cc1=O (single isomer, unassigned) [Example 5, O-[4-({2-[4-(5-Chloro-2-cyanophenyl)-5-methoxy-2-oxopyridin-1(2H)-yl]butanoyl}amino)-benzoyl]-N-(pyrrolidin-1-ylacetyl)-L-serine]
Human plasma kallikrein
  IC50: 0.035 µM
Human factor XIa
  IC50: 0.06 µM

## CCC(C(=O)Nc1ccc(C(=O)OCCN2CCCC2)cc1)n1cc(OC)c(-c2cc(Cl)ccc2C#N)cc1=O (single isomer, unassigned) [Example 16, 2-(Pyrrolidin-1-yl)ethyl 4-({2-[4-(5-chloro-2-cyanophenyl)-5-methoxy-2-oxopyridin-1(2H)-yl]butanoyl}amino)benzoate]
Human plasma kallikrein
  IC50: 0.04 µM

## CCC(C(=O)Nc1ccc(C(=O)OC[C@H](NC(=O)C2CCCCN2C)C(=O)O)cc1)n1cc(OC)c(-c2cc(Cl)ccc2C#N)cc1=O (single isomer, unassigned) [Example 7]
Human plasma kallikrein
  IC50: 0.052 µM
Human factor XIa
  IC50: 0.091 µM

## CCC(C(=O)Nc1ccc(C(=O)OC[C@](C)(N)C(=O)O)cc1)n1cc(OC)c(-c2cc(Cl)ccc2C#N)cc1=O (single isomer, unassigned) [Example 3, O-[4-({2-[4-(5-Chloro-2-cyanophenyl)-5-methoxy-2-oxopyridin-1(2H)-yl]butanoyl}amino)-benzoyl]-2-methyl-L-serine]
Human plasma kallikrein
  IC50: 0.06 µM
Human factor XIa
  IC50: 0.082 µM

## CCC(C(=O)Nc1ccc(C(=O)OCCN2CCN(C)CC2)cc1)n1cc(OC)c(-c2cc(Cl)ccc2C#N)cc1=O (single isomer, unassigned) [Example 14, 2-(4-Methylpiperazin-1-yl)ethyl 4-({2-[4-(5-chloro-2-cyanophenyl)-5-methoxy-2-oxopyridin-1(2H)-yl]butanoyl}amino)benzoate]
Human plasma kallikrein
  IC50: 0.038 µM

## CCC(C(=O)Nc1ccc(C(=O)O[C@H]2CN[C@@H](C(=O)O)C2)cc1)n1cc(OC)c(-c2cc(Cl)ccc2C#N)cc1=O (single isomer, unassigned) [Example 11]
Human plasma kallikrein
  IC50: 0.28 µM
Human factor XIa
  IC50: 0.26 µM

## CCC(C(=O)Nc1ccc(C(=O)OC[C@H](NC(=O)C2(N(C)C)CC2)C(=O)O)cc1)n1cc(OC)c(-c2cc(Cl)ccc2C#N)cc1=O (single isomer, unassigned) [Example 8, O-[4-({2-[4-(5-Chloro-2-cyanophenyl)-5-methoxy-2-oxopyridin-1(2H)-yl]butanoyl}amino)-benzoyl]-N-{[1-(dimethylamino)cyclopropyl]carbonyl}-L-serine]
Human plasma kallikrein
  IC50: 0.055 µM
Human factor XIa
  IC50: 0.11 µM

## CCC(C(=O)Nc1ccc(C(=O)O[C@H]2CCN[C@@H]2C(=O)O)cc1)n1cc(OC)c(-c2cc(Cl)ccc2C#N)cc1=O (single isomer, unassigned) [Example 10]
Human plasma kallikrein
  IC50: 0.091 µM
Human factor XIa
  IC50: 0.014 µM

## COc1cn(C(C[C@@H]2CCCCO2)C(=O)Nc2ccc(C(=O)OC(C)[C@H](N)C(=O)O)cc2)c(=O)cc1-c1cc(Cl)ccc1C#N (single isomer, unassigned) [Example 1]
Human plasma kallikrein
  IC50: 0.0091 µM
Human factor XIa
  IC50: 0.002 µM

## CCC(C(=O)Nc1ccc(C(=O)OC[C@@H](C(=O)O)N2CCCC2)cc1)n1cc(OC)c(-c2cc(Cl)ccc2C#N)cc1=O (single isomer, unassigned) [Example 12]
Human plasma kallikrein
  IC50: 0.043 µM
Human factor XIa
  IC50: 0.026 µM

## CCC(C(=O)Nc1ccc(C(=O)OC[C@H](N)C(=O)O)cc1)n1cc(OC)c(-c2cc(Cl)ccc2C#N)cc1=O (single isomer, unassigned) [Example 4, O-[4-({2-[4-(5-Chloro-2-cyanophenyl)-5-methoxy-2-oxopyridin-1(2H)-yl]butanoyl}amino)-benzoyl]-L-serine]
Human plasma kallikrein
  IC50: 0.092 µM
Human factor XIa
  IC50: 0.054 µM

## CCC(C(=O)Nc1ccc(C(=O)OCCC2CCNCC2)cc1)n1cc(OC)c(-c2cc(Cl)ccc2C#N)cc1=O (single isomer, unassigned) [Example 15, 2-(Piperidin-4-yl)ethyl 4-({2-[4-(5-chloro-2-cyanophenyl)-5-methoxy-2-oxopyridin-1(2H)-yl]butanoyl}amino)benzoate]
Human plasma kallikrein
  IC50: 0.044 µM
Human factor XIa
  IC50: 0.23 µM

## CCC(C(=O)Nc1ccc(C(=O)OC[C@H](NC(=O)[C@@H]2CCCN2)C(=O)O)cc1)n1cc(OC)c(-c2cc(Cl)ccc2C#N)cc1=O (stereo partly drawn) [Example 6, Prolyl-O-[4-({2-[4-(5-chloro-2-cyanophenyl)-5-methoxy-2-oxopyridin-1(2H)-yl]butanoyl}amino)-benzoyl]-L-serine]
Human plasma kallikrein
  IC50: 0.044 µM
Human factor XIa
  IC50: 0.065 µM
